Data from US11485736B2 (KSQ Therapeutics, Inc., priority 2018, dated 2022).
Read-outs that look alike come from different tables or passages of the source.

Assays:
[1] = ADME solubility determination at pH 2.0 and pH 7.4; type: physicochemical; details: aqueous buffer, thermodynamic from solid, LC-MS/MS
Protocol: Certain Compounds of the Disclosure were assessed for ADME solubility at pH 2.0 and pH 7.4.
Stock solutions were prepared by adding each compound to DMSO at a concentration of 10 mM. Samples were prepared by adding 50 μL of each stock solution to separate vials. The vials were loaded onto a 96-well rack and dried. 500 μL of Phosphate Buffered Saline (PBS) pH 7.4 or PBS pH 2.0 were added into each vial. The vials were then shaken at 25° C. and 1,100 rpm for 24 hours.
After 24 hours, the vials were centrifuged at 3220 G and 25° C. for 30 minutes. The supernatant fluid was analyzed by LC-MS/MS against a standard of known concentration. The solubility of each sample was then calculated using the equation below:
[formula] where DF is the dilution factor.

[2] = Liver microsomal stability, human liver microsomes; type: in vitro ADME; details: 1 μM compound, NADPH, read-out: t1/2 (min) in HLM
Protocol: (§1) Certain Compounds of the Disclosure were assessed for ADME metabolic stability in human liver microsomes (HLM) and rat liver microsomes (RLM).
(§2) Samples were prepared by adding 222.5 μL of a master solution (100 mM phosphate buffer and 1 mg/mL liver microsomes (HLM or RLM)) and 25 μL of a 10 mM NADPH solution to incubation plates, which were then warmed for 10 min. Each compound was separately dissolved in DMSO to prepare 10 mM stock solutions, which were then diluted to 100 μM with acetonitrile. A reaction was started by adding 2.5 μL of the 100 μM solution of each compound to separate incubation plates such that the final concentration of for each compound in each plate was 1 μM.
(§3) 25 μL aliquots of each sample were taken at 0.5, 5, 10, 15, 20 and 30 minutes, and the reaction was stopped by adding 5 volumes of cold acetonitrile with IS (100 nM alprazolam, 200 nM caffeine and 100 nM tolbutamide). The samples were then centrifuged at 3,220 G for 30 minutes, and 100 μL of the supernatant fluid was mixed with 100 μL of ultra-pure H2O.
(§4) The samples were then analyzed by LC-MS/MS. Peak areas were determined from extracted ion chromatograms. Slope values (k) were determined by linear regression of the natural logarithm of the remaining percentage of the compound vs. incubation time curve. […] The in vitro half-life (min) was converted into the in vitro intrinsic clearance (in vitro CLint, in μL/min/mg protein) using the following equation: […]

[3] = Liver microsomal stability, rat liver microsomes; type: in vitro ADME; details: 1 μM compound, NADPH, read-out: t1/2 (min) in RLM
Protocol: as §1, §2, §3, §4

[4] = PBS pH 2.0, shaken at 25° C. for 24 hours, read-out: Solubility at pH 2.0
[5] = PBS pH 7.4, shaken at 25° C. for 24 hours, read-out: Solubility at pH 7.4

Structure (SMILES) | solubility at 24 h [1, 4] [µM] | solubility at 24 h [1, 5] [µM] | half-life at 1 μM [2] [min] | half-life at 1 μM [3] [min]
[2H]C([2H])([2H])Oc1ncnc(C2CC2)c1-c1ncc2cnn(Cc3ccc(-c4nc(C(F)(F)F)cn4CC)cc3)c2n1 [Example 67] | > 10 | < 10 | > 25 | > 25
CCn1cc(C(F)(F)F)nc1-c1ccc([C@@H](C)n2ncc3cnc(-c4c(OC)ncnc4C4CCC4)nc32)cc1 (single isomer, unassigned) [Example 100] | > 10 | < 10 | < 25 | < 25
COc1cc(Cn2ncc3cnc(-c4c(OC)ncnc4C4CC4)nc32)ccc1-c1cn(C)c(C(F)(F)F)n1 [Example 35] | < 10 | < 10 | > 25 | > 25
COc1ncnc(C2CC2)c1-c1ncc2cnn(Cc3ccc(-c4nc(C(F)(F)F)cn4C(C)C)c(F)c3)c2n1 [Example 19] | > 10 | > 10 | > 25 | > 25
COc1ccccc1-c1ncc2cnn(Cc3ccc(-c4nc(C(F)(F)F)cn4C)cc3)c2n1 [Example 2, 6-(2-methoxyphenyl)-1-(4-(1-methyl-4-(trifluoromethyl)-1H-imidazol-2-yl)benzyl)-1H-pyrazolo[3,4-d]pyrimidine] | > 10 | < 10 | < 25 | < 25
COc1ncnc(C2CC2)c1-c1ncc2cnn(Cc3ccc(-n4nc(C(F)(F)F)cc4-c4ccco4)cc3)c2n1 [Example 30, 6-(4-cyclopropyl-6-methoxypyrimidin-5-yl)-1-(4-(5-(furan-2-yl)-3-(trifluoromethyl)-1H-pyrazol-1-yl)benzyl)-1H-pyrazolo[3,4-d]pyrimidine] | < 10 | < 10 | < 25 | < 25
CC(C)Oc1ncnc(C2CC2)c1-c1ncc2cnn(Cc3ccc(-c4nc(C(F)(F)F)cn4C)cc3)c2n1 [Example 40] | > 10 | < 10 | < 25 | < 25
COc1ncnc(C2CC2)c1-c1ncc2cnn(Cc3ccc(-n4nc(C(F)(F)F)cc4C(C)C)cc3)c2n1 [Example 29] | < 10 | < 10 | > 25 | > 25
Cc1cc(C(F)(F)F)nn1-c1ccc(Cn2ncc3cnc(-c4cccnc4C(C)C)nc32)cc1 [Example 26] | > 10 | < 10 | > 25 | < 25
CCn1cc(C(F)(F)F)nc1-c1ccc(Cn2ncc3cnc(-c4c(OC5CCC5)ncnc4C4CC4)nc32)cc1 [Example 64] | < 10 | < 10 | < 25 | < 25

Results, then the molecule that gave them:

solubility at 24 h [1, 4] [µM] | solubility at 24 h [1, 5] [µM] | half-life at 1 μM [2] [min] | half-life at 1 μM [3] [min] | Structure (SMILES)
< 10 | < 10 | < 25 | < 25 | CCn1cc(C(F)(F)F)nc1-c1ccc(Cn2nc(SCc3ccc(OC)cc3)c3cnc(-c4c(OC)ncnc4C4CC4)nc32)cc1 [Example 192, 6-(4-cyclopropyl-6-methoxypyrimidin-5-yl)-1-(4-(1-ethyl-4-(trifluoromethyl)-1H-imidazol-2-yl)benzyl)-3-((4-methoxybenzyl)thio)-1H-pyrazolo[3,4-d]pyrimidine]
< 10 | < 10 | < 25 | < 25 | CCn1cc(C#N)nc1-c1ccc(Cn2ncc3cnc(-c4c(OC)ncnc4C4CC4)nc32)cc1 [Example 148, 2-(4-((6-(4-cyclopropyl-6-methoxypyrimidin-5-yl)-1H-pyrazolo[3,4-d]pyrimidin-1-yl)methyl)phenyl)-1-ethyl-1H-imidazole-4-carbonitrile]
> 10 | < 10 | > 25 | > 25 | COc1ncnc(C2CC2)c1-c1ncc2cnn([C@@H](C)c3ccc(-c4nc(C(F)(F)F)cn4CCF)cc3)c2n1 [Example 169]
> 10 | > 10 | < 25 | < 25 | COc1ncnc(C2CC2)c1-c1ncc2cnn(Cc3ccc(-c4nc(C(F)(F)F)cn4C4CCOC4)cc3)c2n1 (stereo not drawn) [Example 146]
> 10 | > 10 | > 25 | > 25 | COc1ncnc(C2CC2)c1-c1ncc2ncn(Cc3ccc(-n4nc(C(F)(F)F)cc4C)cc3)c2n1 [Example 210]
